Source: patent US11141383B1, “Drug loaded flexible chitoplexes nanoparticles” (King Abdulaziz University, priority 2020, dated 2021)
Like-named read-outs stand apart in the source and are kept apart here.

Key:
[1] = In vitro release study (dialysis bag, phosphate buffer pH 7.4); format: physicochemical
Protocol: The in vitro release of RSV from the prepared liposomal NPs, chitoplexes nano-formulation and pure drug suspension was studied. A quantity of each preparation containing 9 mg of drug was placed in a firmly sealed dialysis bag (Sigma-Aldrich Inc.) of a molecular weight cut-off 14 kDa. The dialysis bag was immersed in a glass bottle containing 400 mL phosphate buffer of pH 7.4. The bottles were kept in a shaking water bath (Model 1031; GFL Corporation, Burgwedel, Germany) at 37° C. and 100 rpm. The parameters of the in vitro release study were selected to achieve a sink condition. Aliquots of 2 mL were taken from the receptor compartment at predetermined time intervals with immediate replacement. The quantity of RSV in the withdrawn samples was determined spectrophotometrically at 242 nm. The experiment was done in triplicate for each formulation and mean values were calculated.

[2] = system: human colorectal (HCT-116) cells; experiment: Cell viability and cytotoxicity assay (MTT); format: cell-based; conditions: HCT-116, MTT
Protocol: This test aimed to determine the effect of the prepared RSV lipid-based NPs formulations on intestinal cell viability and cytotoxicity. The potential effects of both formulations on human colorectal (HCT-116) cells were assessed by 3-(4,5-dimethylthiazol-2-yl)2,5-diphenyl tetrazolium bromide (MTT) assay. Cells were seeded on 96-well plates (1×10^4 cells/well) and incubated at 37° C. under a humidified atmosphere of 5% CO2 for 24 h. […] Each formulation was compared with a drug-free carrier as a negative control. After incubation, SFM in the control and test wells were replaced by 100 μL/well of MTT solution (0.5 mg/ml) in PBS and incubated at 37° C. for another 3 h. The MTT solution was removed and the purple formazan crystals formed at the bottom of the wells were dissolved using 100 μL DMSO/well with shaking for 2 h at room temperature. The intensity of the color obtained was measured at 549 nm using a microplate reader (ELX 800; Bio-Tek Instruments, Winooski, Vt., USA). Data, expressed as the percentage of viable cells, were compared to the survival of a control group. Values of the half maximal inhibitory concentration (IC50) were also estimated. Cells treated with DMSO only were defined as 100%
To examine the biocompatibility and cytotoxic effects of plain and drug loaded liposomal NPs or chitoplexes nano-formulation, HCT-116 cells were treated with different concentrations of these samples for 3 days and the MTT assay was performed to investigate the effect of these formulation on the viability of living cells. This test depends on the production of a colored formazan by the action of the viable cells' mitochondrial enzymes on MTT. Cells were exposed to increasing RSV concentrations of drug loaded liposomal NPs and chitoplexes nano-formulation standardized at certain RSV concentrations. Cells were also incubated with blank liposomal NPs and chitoplexes nano-formulation to exclude the effect of RSV. […]

[3] = cited from earlier work
[4] = cited from earlier work; remark: listed apart in the source

CC(C)c1nc(N(C)S(C)(=O)=O)nc(-c2ccc(F)cc2)c1/C=C/[C@@H](O)C[C@@H](O)CC(=O)O [RSV pure, Rosuvastatin]
drug release after 24 h ([1]; dialysis bag 14 kDa, phosphate buffer pH 7.4, 37° C., 100 rpm, 24 h): 37.28±2.86% | drug release pattern ([1]; dialysis bag, phosphate buffer pH 7.4, FIG. 4): overall low drug release pattern | IC50 ([2]; after 24 h, read-out: IC50 (μM) after 24 h): 248 µM | IC50 ([2]; after 48 h, read-out: IC50 (μM) after 48 h): 237 µM | IC50 ([2]; after 72 h, read-out: IC50 (μM) after 72 h): 168 µM | elimination half-life ([3]; in vivo): ~19 h | excreted in feces ([3]; in vivo): 90% | time to maximum plasma concentration ([3]; in vivo): 3 to 5 h | bound to plasma protein ([3]; mainly to serum albumin): 88% | oral bioavailability ([3]; oral): ~20% | orally administered dose absorbed ([3]; oral): about 25% | water solubility [4]: low
